Laboratory results: patent US20220380721A1, “METHOD FOR COUPLING ANTIBODY TO SURFACE OF CELL AND METHOD FOR APPLYING CELL COUPLED WITH THE ANTIBODY” (Xiamen Nuokangde Biological Technology Co., Ltd., priority 2019, published 2022)

System: NK92 cells
Experiment: Metabolic incorporation of azido sialic acid in NK92 cells, detected with FITC-Stau by confocal laser microscope
Type: cell-based
Details: NK92 cells cultured with 100 μM 9N3-SA for 24-48 hours; FITC-Stau 100 μM, 37° C., 2-4 hours; compared with cells not modified
Description: NK92 cells normally cultured are distributed into a 24-well plate and then cultured in a NK92 cell medium containing 9N3-SA with a final concentration of 100 μM for 24-48 hours. The NK92 cells are washed by PBS for 3 times, and the NK92 cell medium containing 9N3-SA is then replaced by a normal NK92 medium to obtain NK92 cells modified with the azide groups. In order to verify that the NK92 cells have been modified with the azide groups, in this embodiment, Fluorescein-Stau (FITC-Stau) (as shown in FIG. 3), a ligand molecule connected to fluorescein and able to orthogonally react with the azide groups, is synthesized. The FITC-Stau is added into a medium of the NK92 cell modified with the azide groups with a final concentration of 100 μM, incubated at 37° C. for 2-4 hours, and washed with PBS for 3 times, and fluorescence on the cell surface is then observed by a confocal laser microscope.

With COC(=O)[C@@]1(O)C[C@@H](O)[C@@H](NC(C)=O)C([C@H](O)[C@H](O)CN=[N+]=[N-])O1 (stereo partly shown) [9N3-SA] the “fluorescence on the cell surface after FITC-Stau labeling” value was “strong fluorescence signal”.
